From patent publication US7622491B2, “Modulators of PPAR and methods of their preparation” (Metabolex Inc., priority 2004, dated 2009)
pEC50: −log10 of the molar value. Read-outs that look alike come from different tables or passages of the source.

Experiments:
Assay type in all cases: cell-based
mouse PPAR δ = molecular target: T1, mouse PPAR δ (Mus musculus, UniProt P35396); assay: PPAR δ transactivation (GAL4 chimeric receptor luciferase reporter) assay; conditions: GAL4-mPPAR δ chimeric receptor, pFR-Luc reporter, HEK293T cells, 20 hours incubation
T1 construct: expressed in transfected cells; host or cells: HEK293T
T1 sequence (P35396 210-438 limits assumed): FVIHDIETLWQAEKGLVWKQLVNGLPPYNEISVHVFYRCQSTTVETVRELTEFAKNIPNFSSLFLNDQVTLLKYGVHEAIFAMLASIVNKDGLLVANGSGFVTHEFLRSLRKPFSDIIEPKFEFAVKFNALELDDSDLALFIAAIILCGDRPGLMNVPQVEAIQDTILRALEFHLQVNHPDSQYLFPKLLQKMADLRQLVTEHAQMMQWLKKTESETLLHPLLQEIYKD
From the text: (§1) Chimeric receptors were constructed in which the yeast transcription factor GAL4 DNA binding domain was fused to the ligand binding domain of either mouse PPARγ, mouse PPAR δ or mouse PPAR α in order to assess the ability of the compounds of the present invention to activate gene expression in a PPAR-dependent manner. The chimeric receptor expression plasmids (GAL4-mPPARγ, GAL4-mPPAR δ and GAL4-PPAR α) and the reporter plasmid containing 5×GAL4 binding site (pFR-Luc, obtained from Stratagene) were transfected into HEK293T cells using the Lipofectamine 2000 reagent (Invitrogen), according to the manufacturers instructions. Six hours after transfection, the culture medium was renewed and the cells were incubated for 20 hours in presence of either 1) DMSO (vehicle), 2) a compound of the invention or 3) a reference compound for comparison. Rosiglitazone (obtained from WDF Pharma) was used as a reference compound for the PPARγ assay; GW501516 (prepared as described in Sznaidman et al. Bioorg. Med. Chem. Lett. (2003) 13:1517-1521) was used as a reference compound for the PPAR δ assay and GW7647 (obtained from Sigma) was used as a reference compound for the PPAR α assay. Luciferase activity was measured as a reporter of gene expression. Luciferase activity on the cell lysates using the Steady-Glo reagent was measured according to the manufacturers instructions.

mouse PPAR α = molecular target: T2, mouse PPAR α (Mus musculus, UniProt P23204); assay: PPAR α transactivation (GAL4 chimeric receptor luciferase reporter) assay
T2 construct: expressed in transfected cells; host or cells: HEK293T
T2 sequence (P23204 239-466 limits assumed): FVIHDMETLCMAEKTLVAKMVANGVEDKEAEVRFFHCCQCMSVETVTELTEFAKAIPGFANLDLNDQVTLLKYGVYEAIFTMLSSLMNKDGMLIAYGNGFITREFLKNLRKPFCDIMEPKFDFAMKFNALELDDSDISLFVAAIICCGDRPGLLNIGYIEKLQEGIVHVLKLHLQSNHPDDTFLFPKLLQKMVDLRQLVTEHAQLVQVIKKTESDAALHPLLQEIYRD
From the text: as §1

mouse PPARγ = molecular target: T3, mouse PPARγ (Mus musculus, UniProt P37238); assay: PPARγ transactivation (GAL4 chimeric receptor luciferase reporter) assay; conditions: GAL4-mPPARγ chimeric receptor, pFR-Luc reporter, HEK293T cells, 20 hours incubation
T3 construct: expressed in transfected cells; host or cells: HEK293T
T3 sequence (P37238 238-503 limits assumed): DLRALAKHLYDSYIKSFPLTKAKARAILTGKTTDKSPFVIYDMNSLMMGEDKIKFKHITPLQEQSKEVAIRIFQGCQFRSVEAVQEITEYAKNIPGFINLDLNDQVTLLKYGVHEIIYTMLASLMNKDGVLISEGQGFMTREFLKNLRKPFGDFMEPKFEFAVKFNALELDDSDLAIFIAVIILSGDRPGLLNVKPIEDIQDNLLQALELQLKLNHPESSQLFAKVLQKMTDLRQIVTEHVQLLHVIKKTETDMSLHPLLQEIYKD
From the text: as §1

[1] = read-out: Gene Activation Assay: EC50 (≦10 μM) PPAR alpha, pFR-Luc reporter, HEK293T cells, 20 hours incubation
[2] = pFR-Luc reporter, HEK293T cells, 20 hours incubation

| Compound | pEC50 (mouse PPAR δ) | pEC50 (mouse PPAR α; [1]) | pEC50 (mouse PPARγ) | pEC50 (mouse PPAR α; [2]) |
| --- | --- | --- | --- | --- |
| O=C(O)Cc1ccc(OCCOc2ccc(Cl)cc2-n2nc3ccccc3n2)cc1 [Compound 800, {4-[2-(2-Benzotriazol-2-yl-4-chloro-phenoxy)-ethoxy]-phenyl}-acetic acid] | ≥ 5.00 | < 5.00 | ≥ 5.00 | – |
| O=C(O)Cc1ccc(OCCCOc2ccc(Cl)cc2C#Cc2ccccn2)cc1 [Compound 1500, {4-[3-(4-Chloro-2-pyridin-2-ylethynyl-phenoxy)-propoxy]-phenyl}-acetic acid] | ≥ 5.00 | < 5.00 | ≥ 5.00 | – |
| Cc1cc(SCCOc2ccc(Cl)cc2-n2nc3ccccc3n2)ccc1OCC(=O)O [Compound 400, {4-[2-(2-Benzotriazol-2-yl-4-chloro-phenoxy)-ethylsulfanyl]-2-methyl-phenoxy}-acetic acid] | ≥ 5.00 | < 5.00 | ≥ 5.00 | – |
| CCCc1cc(CC(=O)O)ccc1OCCOc1ccc(Cl)cc1-n1nc2ccccc2n1 [Compound 900, {4-[2-(2-Benzotriazol-2-yl-4-chloro-phenoxy)-ethoxy]-3-propyl-phenyl}-acetic acid] | ≥ 5.00 | – | ≥ 5.00 | < 4.52 |
| O=C(O)Cc1ccc(OCCCOc2ccc(Cl)cc2-n2nc3ccccc3n2)cc1 [Compound 500, {4-[3-(2-Benzotriazol-2-yl-4-chloro-phenoxy)-propoxy]-phenyl}-acetic acid] | ≥ 5.00 | – | ≥ 5.00 | ≥ 5.00 |
| O=C(O)Cn1ncc2cc(OCCCOc3ccc(Cl)cc3-n3nc4ccccc4n3)ccc21 [Compound 1700, {5-[3-(2-Benzotriazol-2-yl-4-chloro-phenoxy)-propoxy]-indazol-1-yl}-acetic acid] | ≥ 5.00 | – | ≥ 5.00 | < 4.52 |

Continued, values first:

| pEC50 (mouse PPAR δ) | pEC50 (mouse PPAR α; [1]) | pEC50 (mouse PPARγ) | pEC50 (mouse PPAR α; [2]) | Compound |
| --- | --- | --- | --- | --- |
| ≥ 5.00 | < 5.00 | ≥ 5.00 | – | COc1cccc(C#Cc2cc(Cl)ccc2OCCCOc2ccc(CC(=O)O)cc2)c1 [Compound 1400, (4-{3-[4-Chloro-2-(3-methoxy-phenylethynyl)-phenoxy]-propoxy}-phenyl)-acetic acid] |
| ≥ 5.00 | < 5.00 | ≥ 5.00 | – | O=C(O)Cn1ccc2cc(OCCCOc3ccc(Cl)cc3-n3nc4ccccc4n3)ccc21 [Compound 1800, {5-[3-(2-Benzotriazol-2-yl-4-chloro-phenoxy)-propoxy]-indol-1-yl}-acetic acid] |
| ≥ 5.00 | – | ≥ 5.00 | ≥ 5.00 | O=C(O)Cc1ccc(OCCCOc2ccc(Cl)cc2-n2nc3c(n2)CCCC3)cc1 [Compound 1200, (4-{3-[4-Chloro-2-(4,5,6,7-tetrahydro-benzotriazol-2-yl)-phenoxy]-propoxy}-phenyl)-acetic acid] |
| ≥ 5.00 | – | ≥ 5.00 | ≥ 5.00 | Cc1cc(SCCCOc2ccc(Br)cc2-c2nc3ccccc3o2)ccc1OCC(=O)O [Compound 300, {4-[3-(2-Benzooxazol-2-yl-4-bromo-phenoxy)-propylsulfanyl]-2-methyl-phenoxy}-acetic acid] |
| ≥ 5.00 | – | ≥ 5.00 | ≥ 5.00 | Cc1cccc2nn(-c3cc(Cl)ccc3OCCCOc3ccc(CC(=O)O)cc3)nc12 [Compound 1600, (4-{3-[4-Chloro-2-(4-methyl-benzotriazol-2-yl)-phenoxy]-propoxy}-phenyl)-acetic acid] |
| ≥ 5.00 | – | ≥ 5.00 | ≥ 5.00 | CCCc1cc(CC(=O)O)ccc1OCCCOc1ccc(Cl)cc1-n1nc2ccccc2n1 [Compound 600, {4-[3-(2-Benzotriazol-2-yl-4-chloro-phenoxy)-propoxy]-3-propyl-phenyl}-acetic acid] |
| ≥ 5.00 | < 5.00 | ≥ 5.00 | – | O=C(O)Cn1ccc2cc(OCCOc3ccc(Cl)cc3-n3nc4ccccc4n3)ccc21 [Compound 1900, {5-[2-(2-Benzotriazol-2-yl-4-chloro-phenoxy)-ethoxy]-indol-1-yl}-acetic acid] |
| ≥ 5.00 | < 5.00 | ≥ 5.00 | – | O=C(O)Cc1ccc(OCCCOc2ccc(Cl)cc2C#Cc2ccccc2)cc1 [Compound 1300, {4-[3-(4-Chloro-2-phenylethynyl-phenoxy)-propoxy]-phenyl}-acetic acid] |
